The record followed here is patent US6984496B2, “Vitro assay for testing gabapentinoid activity” (Warner-Lambert Company, priority 2001, dated 2006).

Test [1] concerns rat mGluR5 mediated Erk-2 phosphorylation. Kind of test: mGluR5 mediated Erk phosphorylation in CHO-mGluR5 cells, Western blot with anti-pErk antibody. Format: cell-based. As to the method:
. Products from treated cells were analyzed by Western blotting with anti-pErk antibody.
CHO cells engineered to express mGluR5 (CHO-mGluR5 cells) were plated in 12-well tissue culture plates at a density of 20,000 cells/well and grown for 24 hours, followed by further culturing in serum free medium for 16 hours. CHO-mGluR5 cells were incubated in Krebs buffer for 30 minutes at which time 1 mM sodium pyruvate and 10 μ/mL glutamic-pyruric transaminase was added. […] . […] Proteins in cell extracts were separated by SDS-PAGE and transferred to nitrocellulose membrane. The membrane was blocked overnight at 4° C. with 4% BSA in Tris-buffered saline containing 0.2% (v/v) Tween 20 (TBST). The membrane was then incubated for 1 hour at room temperature (RT) with antiphospho MAP kinase antibody (1:1000 dilution) in 1% BSA and TBST, then washed with TBST followed by incubation with antirabbit IgG HRP antibody. After a final wash with TBST, the membrane was visualized using enhanced chemiluminescence reagents.
Activation of Erk-1 and -2 by stimulating CHO-mGluR5 cells with 100 μM quisqualate was examined by using an antibody specific to phosphorylated Erk-1 and -2. As shown in FIG. 1 (Lane 1), there was little phosphorylated Erk-1 and -2 in unstimulated CHO cells. […] .
On the technique in general: Immunoblotting shows a protein as a band on a membrane.

Test [2] deals with NK1 mediated Elk-1 transcription. Kind of test: NK1 mediated Elk-1 luciferase reporter assay in CHO-NK-1 cells stimulated with substance P. Particulars: substance P 20 nM, 4 hours. A general note: A reporter such as luciferase makes a cellular process visible.
Method: CHO-NK-1 cells were seeded to plates and grown to confluency overnight. Lipofectamine transfection was performed on the confluent cells to insert Elk-1 and luciferase vectors necessary for a MAP kinase dependent reporter system. Prior to transfection, the cells were washed in OPTI media (Gibco). To each confluent well in a 24-well plate, 20 ng of Elk-1 and 200 ng of luciferase DNA vectors were added. In addition to the vectors, 1.5 μL of Lipofectamine Reagent (Gibco) and OPTI media (Gibco) were also added for a total transfection volume of 200 μL (a master mix was made prior to use). After a 3-hour incubation, the media was changed to F-12 growing media (500 μL/well) for an additional 3-hour incubation. After the second incubation, the media was changed again to DMEM (500 μL/well) for serum starvation and incubated overnight (all incubations at 37° C.).
In addition, lipofectamine transfection was performed on CHO-NK-1 confluent cells to insert a GAL4-Elk-1 fusion protein and luciferase vector using the methods described above.
The DMEM media was decanted off the plate, and the cells were washed with 500 μL of Kreb buffer. After the wash, 460 μL of Kreb buffer containing 2 mM sodium pyruvate was added to each well and incubated for 30 minutes at 37° C. Next, 20 μL of compound was added to each well at the desired concentration and incubated for another 30 minutes. […] Finally, the cells were stimulated with Substance-P (final concentration=20 nM), and the cells were incubated for 4 hours at 37° C. After the 4-hour incubation, the buffer was decanted off the plate, and the plate was washed twice with Dulbecco's-PBS. Cells were lysed with 100 μL per well of cell Lysis Buffer (Promega), and the plate was vortexed for 10 minutes. Finally, 10 μL of the cell lysate was transferred to a 96-well reader plate, and each well's luminescence was measured using a luminometer (the Promega Luciferase Reporter system was used).
Test [3] concerns PMA mediated Erk-2 phosphorylation. The test can be described thus: PMA mediated Erk-2 phosphorylation in differentiated IMR-32 cells, Western blot. Format: cell-based, human. The conditions noted are these: 30 minutes preincubation, PMA stimulation. The procedure:
[…]. Differentiated IMR-32 cells were pretreated with indicated concentrations of gabapentin for 30 minutes and then stimulated with PMA for 10 minutes. Products from treated cells were analyzed by Western blotting with anti-pErk antibody.
IMR-32 cells were grown in MEM media (Gibco BRL, 11095-080), supplemented with 10% fetal bovine serum (Gibco BRL, 26140-087), 1% antibiotic-antimycotic (Gibco BRL, 15240-096), and 1% L-glutamine (Gibco BRL, 25030-032). Cells, grown to confluency, were differentiated for a period of 7 to 10 days, or longer, by adding 1 mM dibutyryl cAMP (Sigma D-0627) and 2.5 μM 5-bromo-2-deoxyuridine (Sigma B-9285) to the media. The differentiation media was fed continuously to cells until the cells were used in an experiment. Cells were divided into groups and preincubated for 30 minutes either in the presence or absence of indicated concentration of gabapentin then subsequently challenged with 50 nM PMA for […]. […]. Proteins in cell extracts were separated by SDS-PAGE and transferred to nitrocellulose membrane. The nitrocellulose membrane was blocked overnight at 4° C. with 4% BSA in Tris-buffered saline containing 0.2% (v/v) Tween 20 (TBST). The membrane was then incubated for 1 hour at RT with antiphospho MAP kinase antibody (1:1000 dilution) in 1% BSA and TBST, then washed with TBST followed by incubation with antirabbit IgG HRP antibody. […]

Test [4] relates to PMA mediated Elk-1 transcription in CHO cells. Kind of test: PMA mediated Elk-1 reporter assay in CHO cells.
Method: (§2) PKC competent cells are stimulated with PMA, preferably in the range of 50 nM, to activate Erk-2. Activated Erk-2, as discussed above, activates Elk-1 which induces reporter gene expression. […] As above, cells may be incubated with the target compound before treatment with PMA.
Test [5] relates to PMA mediated Elk-1 transcription in IMR-32 cells. Kind of test: PMA mediated Elk-1 reporter assay in IMR-32 cells. The conditions noted are these: 50 nM PMA.
Method: as §2
The next test concerns MAP kinase. The test can be described thus: MAP kinase activation in CHO-NK-1 cells, Western blot with activation-specific antibodies. Format: cell-based, Chinese Hamster. Particulars: 10 nM substance-P, data not shown.
In a further test the test system is P38. Kind of test: P38 activation in CHO-NK-1 cells, Western blot with activation-specific antibodies. Type of test: cell-based, Chinese Hamster. Particulars: 10 nM substance-P, data not shown. From the text:
(§1) Since P38 and Jun kinases are closely related to MAP kinase, the effects of substance-P on these kinases was examined.

In the next test the test system is Jun kinase. The test can be described thus: Jun kinase activation in CHO-NK-1 cells, Western blot with activation-specific antibodies. Type of test: cell-based, Chinese Hamster. Particulars: 10 nM substance-P, data not shown.
Text: as §1

Ends that are not written are not given here.

Regarding `O=C(NOCC1CC1)c1ccc(F)c(F)c1Nc1ccc(I)cc1Cl` [PD 184352], in test [1] (CHO-mGluR5 cells, data not shown), the “effect on quisqualate activated Erk phosphorylation (positive control)” value was “block the effect of quisquolate”. Further, the “inhibition of Elk-1 mediated luciferase activity elicited by substance P” value (shortened to “inhibition … by substance P”) in test [2] is on record as “completely inhibited”.
For `NCC1(CC(=O)O)CCCCC1` [gabapentin, 1-(aminomethyl) cyclohexaneacetic acid], in test [1] (100 μM compound preincubated 30 minutes, 100 μM quisqualate 5 minutes, CHO-mGluR5 cells), the “reduction of quisqualate activated phosphorylated Erk-2” value was found to be 50%. Besides, in test [1] (gabapentin treated CHO-mGluR5 cells, no quisqualate (Lane 3)), the “phosphorylated Erk-1 and -2 in the absence of quisqualate” value is “little or no phosphorylated Erk-1 and -2”. Further, in test [3], the “effect on PMA increased Erk-2 phosphorylation” value is “dose-dependently blocked”. The “effect on PMA activated reporter gene activity” value in test [4] is recorded as “in a dose-dependent manner, reduced”. Also, the “effect on PMA-induced Elk-1 reporter gene expression” value in test [5] was “dose-dependently decreased”. In addition, in test [2], the “inhibition … by substance P” value was “dose dependent inhibition”.
For the compound `CC(C)C[C@H](CN)CC(=O)O` [pregabalin], the “inhibition … by substance P” value in test [2] is given as “dose dependent inhibition”.
For “substance-P: a tackykinin neuropeptide that acts through the NK1, NK2, and NK3 receptors (RPKPQQFFGLM-NH2; ends and bridges not checked; UniProt P20366 58-68, looked up)”, the “activation of MAP kinase” value with MAP kinase is recorded as “significantly activated”. For the same compound, the “activation of P38” value with P38 was “no effect”. Besides, the “activation of Jun kinase” value with Jun kinase is on record as “no effect”.
